Reference: patent US20070003510A1, “Preparations containing an extract of eperua falcata and/or constituents of the latter” (priority 2003, published 2007)

Key:
Type in all cases: cell-based
CGRP = assay: Quantity of neuropeptide CGRP released by neurone culture, ELISA (spontaneous, KCl- or capsaicin-stimulated); conditions: KCl 40 mM alone, 20 mins; based on the standard (no test substance) = 100
PGE2 = assay: Protection against UV-B radiation: PGE2 release from human keratinocytes, ELISA; conditions: 0.003%, UV-B 50 mJ/cm^2, UV-B alone = 100, no UV-B = 0
Description: UV-B radiation (wavelength 280 to 320 nm) causes inflammation of the skin, mainly by activation of an enzyme (phospholipase A2 or PLA2) which releases arachidonic acid from the cell membrane (V. A. De Leo, D. Hanson, I. B. Weinstein and L. C. Harber, Ultraviolet radiation stimulates the release of arachidonic acid from mammalian cells in culture, Photochemistry and Photobiology (1985), Vol. 41, No. 1, pages 51 to 56). Other enzymes (so-called cyclo-oxygenases) then convert the arachidonic acid into active components, so-called prostaglandin (PG for short). The prostaglandin is secreted by the cells. The fixing of certain prostaglandins (PGE2) to specific receptors of the skin leads to reddening and swelling of the skin in the same way as sunburn does.
(§1) Human keratinocytes were incubated for three days at 37° C. in an atmosphere containing 5% by volume carbon dioxide (standard nutrient medium containing foetal calf serum (FCS)). The nutrient medium was then replaced by an isotonic common salt solution containing the substance to be tested (astilbin or engeletin). The keratinocytes were exposed to UV-B radiation (50 mJ/cm^2, DUKE GL40E lamp), followed by incubation for one day at 37° C. in an atmosphere containing 5% by volume carbon dioxide. The supernatant nutrient medium was spectroscopically analyzed for LDH2 and PEG2 by the ELISA method.
(§2) The results are set out in the following Table (% by comparison with the control test).

human keratinocytes = assay: Protection against UV-B radiation: LDH release from human keratinocytes; conditions: 0.003%, UV-B 50 mJ/cm^2, UV-B alone = 100, no UV-B = 0
Method: In cultured human cells, these effects of UV-B radiation on the cell membranes are associated with the release of a cytoplasmatic enzyme into the supernatant solution. This cytoplasmatic enzyme is lactate dehydrogenase or LDH (B. Bonnekoh, B. Farkas, J. Geisel and G. Mahrle, Lactate dehydrogenase release as an indicator of dithranol-induced membrane injury in cultured human keratinocytes, Dermatological Research (1990), Vol. 282, pages 325-331).
as §1, §2

human PMNs = assay: Respiratory burst: reactive oxygen compounds (ROS) of zymosan-activated human PMNs, luminol luminescence; conditions: for Content of reactive oxygen compounds (ROS) (% versus control): 24 h incubation, zymosan activation; for Effectiveness in suppressing inflammatory processes: in words, effectiveness increases with the quantity used
Description: In the course of cutaneous inflammation, leucocytes, for example polymorphonuclear neutrophilic granulocytes (PMNs), are attracted and stimulated by peptides, such as cytokines and other messenger substances such as, for example, leudotrienes released from activated or necrotic cells in the dermis. These stimulated PMNs secrete not only pro-inflammatory cytokines, leucotrienes and proteases, but also reactive oxygen compounds (ROS), such as superoxides and hypochlorite anions for example. This is done to destroy pathogenic bacteria or fungi. This activity of the PMNs is known as respiratory burst and intensifies the inflammation reaction and causes tissue damage through released ROS and lysosomal enzymes.
Particulars of the test procedure can be found in the article by Kapp et al. entitled “The role of immunomodulating cytokines, activation of the oxidative metabolism in human polymorphonuclear neutrophilic granulocytes, Journal of Investigative Dermatology, Vol. 95, pages 94S to 99S, 1990”.
A suspension of human PMNs (1 million cells per milliliter) was exposed to the substances to be tested (incubation for 24 h at 37° C. in an atmosphere containing 5% by volume CO2). The number of PMN cells was determined. The PMNs were activated with 0.1 ml zymosan (an insoluble carbohydrate from the cell wall of yeast), followed by incubation for 0.5 h at 37° C. in an atmosphere containing 5% by volume CO2).
The results are set out in the following Table (% by comparison with the control test). The quantity of ROS was measured with luminol; luminescence was determined for 60 seconds.

[Cl-].[K+] [KCl, potassium chloride]
CGRP (CGRP): 554 ± 8

C[C@@H]1O[C@@H](O[C@H]2C(=O)c3c(O)cc(O)cc3O[C@@H]2c2ccc(O)c(O)c2)[C@H](O)[C@H](O)[C@H]1O [Pure astilbin, astilbin]
Quantity of PGE2 in %/(control without UV-B exposure) (PGE2): 58% | Quantity of PGE2 in %/(control without UV-B exposure) (PGE2; listed as astilbin): reduced | Quantity of LDH in %/(control without UV-B exposure) (human keratinocytes): 58% | Quantity of LDH in %/(control without UV-B exposure) (human keratinocytes; listed as astilbin): reduced | Content of reactive oxygen compounds (ROS) (% versus control) (human PMNs; dose 0.0003%): 47 % versus control | Content of reactive oxygen compounds (ROS) (% versus control) (human PMNs; dose 0.001%): 26 % versus control | Content of reactive oxygen compounds (ROS) (% versus control) (human PMNs; dose 0.003%): 14 % versus control | Effectiveness in suppressing inflammatory processes (human PMNs): very effective

CC1OC(OC2C(=O)c3c(O)cc(O)cc3OC2c2ccc(O)cc2)C(O)C(O)C1O (centres unmarked) [Pure engeletin, engeletin]
Quantity of PGE2 in %/(control without UV-B exposure) (PGE2): 35% | Quantity of PGE2 in %/(control without UV-B exposure) (PGE2; listed as engeletin): the effect is not as pronounced | Quantity of LDH in %/(control without UV-B exposure) (human keratinocytes): 47% | Quantity of LDH in %/(control without UV-B exposure) (human keratinocytes; listed as engeletin): the effect is not as pronounced | Content of reactive oxygen compounds (ROS) (% versus control) (human PMNs; dose 0.001%): 65 % versus control | Content of reactive oxygen compounds (ROS) (% versus control) (human PMNs; dose 0.003%): 50 % versus control | Content of reactive oxygen compounds (ROS) (% versus control) (human PMNs; dose 0.01%): 25 % versus control | Effectiveness in suppressing inflammatory processes (human PMNs): very effective
